Assay results published in patent publication US20240299387A1, “HETEROCYCLIC EGFR INHIBITORS FOR USE IN THE TREATMENT OF CANCER” (Blueprint Medicines Corporation, priority 2021, published 2024).
Structures can show the parent of a compound that is named as a salt. Where two headings read alike, the source gives them in different places.

What was measured:
EGFR (L858R T790M C797S) = molecular target: T1, EGFR (L858R T790M C797S) (Homo sapiens, UniProt P00533, C797S/L858R/T790M); assay: Biochemical EGFR inhibition assay (Caliper mobility shift), EGFR LRTMCS mutant
T1 construct: purchased SignalChem E10-122VG
Summary of the method: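 Kinase reactions at 25 °C run to 10–20% peptide phosphorylation, stopped with 35 mM EDTA. Phosphorylated product and substrate separated electrophoretically by mobility shift. Apparent IC50 from percent activity versus log compound concentration.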

[1] = molecular target: T2, EGFR L858R T790M in NCI-H1975 cell line (Homo sapiens, UniProt P00533, L858R/T790M); assay: NCI-H1975 pEGFR AlphaLISA assay; type: cell-based; conditions: NCI-H1975 cells (EGFR L858R T790M), p-EGFR (Tyr1068), 4-5 hours incubation; read-out: Ext pEGFR H1975 GMean IC50 (nM) Protocol: @Pharmaron AlphaLISA (Num)
T2 construct: host or cells: NCI-H1975
Summary of the method: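 Phospho-EGFR measured by AlphaLISA after overnight donor-bead incubation; IC50 from percent pEGFR inhibition versus log concentration.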

[2] = LRTMCS (PH) IC50 (nM) @ 1 mM ATP (Num)

T2 sequence (P00533 25-1210 T790M/L858R): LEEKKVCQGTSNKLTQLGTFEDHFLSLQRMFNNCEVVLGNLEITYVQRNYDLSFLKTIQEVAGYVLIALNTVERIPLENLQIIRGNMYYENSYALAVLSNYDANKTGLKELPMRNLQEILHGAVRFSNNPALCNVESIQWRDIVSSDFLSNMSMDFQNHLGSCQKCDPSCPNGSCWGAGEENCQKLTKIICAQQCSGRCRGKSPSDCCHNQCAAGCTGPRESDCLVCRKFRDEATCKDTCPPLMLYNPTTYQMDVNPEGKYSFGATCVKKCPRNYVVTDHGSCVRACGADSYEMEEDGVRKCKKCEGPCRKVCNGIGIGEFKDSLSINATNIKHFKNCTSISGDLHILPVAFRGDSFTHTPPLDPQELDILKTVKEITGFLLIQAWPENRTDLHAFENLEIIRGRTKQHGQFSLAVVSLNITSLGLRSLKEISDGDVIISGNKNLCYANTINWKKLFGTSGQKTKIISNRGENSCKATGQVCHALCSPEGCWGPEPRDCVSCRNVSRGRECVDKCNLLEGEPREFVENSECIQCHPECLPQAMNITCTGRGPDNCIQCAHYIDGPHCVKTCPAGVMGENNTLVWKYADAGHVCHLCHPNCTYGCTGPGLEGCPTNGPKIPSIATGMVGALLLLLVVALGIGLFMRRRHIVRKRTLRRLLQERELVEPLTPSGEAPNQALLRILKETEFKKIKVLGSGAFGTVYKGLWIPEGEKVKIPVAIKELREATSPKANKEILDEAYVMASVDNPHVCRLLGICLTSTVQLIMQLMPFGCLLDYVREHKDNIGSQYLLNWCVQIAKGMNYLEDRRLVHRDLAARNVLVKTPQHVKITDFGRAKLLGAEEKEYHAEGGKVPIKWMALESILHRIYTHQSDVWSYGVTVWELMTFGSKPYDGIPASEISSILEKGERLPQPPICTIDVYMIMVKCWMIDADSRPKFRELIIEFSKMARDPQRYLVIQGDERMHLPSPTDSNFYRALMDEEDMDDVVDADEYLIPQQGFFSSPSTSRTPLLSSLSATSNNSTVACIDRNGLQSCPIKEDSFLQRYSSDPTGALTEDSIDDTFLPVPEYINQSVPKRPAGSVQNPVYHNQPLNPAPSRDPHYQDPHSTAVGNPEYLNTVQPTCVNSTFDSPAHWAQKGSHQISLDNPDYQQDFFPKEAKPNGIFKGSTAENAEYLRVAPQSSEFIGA
T1 sequence (P00533 25-1210 T790M/C797S/L858R): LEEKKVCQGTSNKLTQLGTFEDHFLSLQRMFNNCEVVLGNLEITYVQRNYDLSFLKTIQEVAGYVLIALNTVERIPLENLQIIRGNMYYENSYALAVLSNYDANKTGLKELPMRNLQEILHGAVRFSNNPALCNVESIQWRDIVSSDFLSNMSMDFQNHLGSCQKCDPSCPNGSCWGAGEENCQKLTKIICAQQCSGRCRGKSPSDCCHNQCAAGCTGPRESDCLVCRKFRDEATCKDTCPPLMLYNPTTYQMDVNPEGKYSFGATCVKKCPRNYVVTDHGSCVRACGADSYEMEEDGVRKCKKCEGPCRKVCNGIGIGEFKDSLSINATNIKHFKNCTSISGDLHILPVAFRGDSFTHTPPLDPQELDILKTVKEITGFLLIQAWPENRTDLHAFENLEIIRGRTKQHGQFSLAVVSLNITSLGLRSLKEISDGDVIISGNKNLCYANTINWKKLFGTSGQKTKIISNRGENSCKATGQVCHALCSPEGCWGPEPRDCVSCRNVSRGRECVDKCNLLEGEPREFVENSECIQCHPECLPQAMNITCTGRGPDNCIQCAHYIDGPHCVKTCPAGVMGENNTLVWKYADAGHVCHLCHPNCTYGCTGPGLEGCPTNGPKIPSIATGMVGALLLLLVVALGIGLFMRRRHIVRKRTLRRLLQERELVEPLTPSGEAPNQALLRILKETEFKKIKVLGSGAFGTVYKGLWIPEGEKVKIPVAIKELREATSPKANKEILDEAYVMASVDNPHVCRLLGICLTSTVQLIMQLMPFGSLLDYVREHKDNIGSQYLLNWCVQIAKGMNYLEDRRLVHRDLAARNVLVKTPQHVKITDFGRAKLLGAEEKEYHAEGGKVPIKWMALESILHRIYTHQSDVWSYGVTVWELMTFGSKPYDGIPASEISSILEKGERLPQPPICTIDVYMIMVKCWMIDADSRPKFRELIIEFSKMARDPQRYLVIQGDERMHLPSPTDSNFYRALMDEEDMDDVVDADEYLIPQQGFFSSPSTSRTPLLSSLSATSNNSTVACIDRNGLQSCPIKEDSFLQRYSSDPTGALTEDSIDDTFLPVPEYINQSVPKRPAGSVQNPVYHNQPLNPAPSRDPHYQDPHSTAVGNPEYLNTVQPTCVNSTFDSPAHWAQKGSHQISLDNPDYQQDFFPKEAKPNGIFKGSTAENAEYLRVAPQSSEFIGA

| Compound | IC50 (EGFR (L858R T790M C797S); [2]) | IC50 [1] | IC50 (EGFR (L858R T790M C797S); read-out: LRTMCS (PH) IC50 (nM) @ 1 mM ATP (Num)) |
| --- | --- | --- | --- |
| CC(C)c1cnc(C(=O)N[C@H]2CC2(F)F)c2cnc(Nc3ccnc(N4CC[C@@H](O)[C@@](C)(F)C4)n3)cc12 (single isomer, unassigned) [Example 63, N—((S)-2,2-difluorocyclopropyl)-6-((2-((3S,4R)-3-fluoro-4-hydroxy-3-methylpiperidin-1-yl)pyrimidin-4-yl)amino)-4-isopropyl-2,7-naphthyridine-1-carboxamide or N—((R)-2,2-difluorocyclopropyl)-6-((2-((3S,4R)-3-fluoro-4-hydroxy-3-methylpiperidin-1-yl)pyrimidin-4-yl)amino)-4-isopropyl-2,7-naphthyridine-1-carboxamide] | 15 to 20 nM | > 50 nM |  |
| CC(C)c1cnc(C(=O)NCCF)c2cnc(Nc3ccnc(N4CC[C@@H](O)[C@@](C)(F)C4)n3)cc12 [Example 62, 6-((2-((3S,4R)-3-fluoro-4-hydroxy-3-methylpiperidin-1-yl)pyrimidin-4-yl)amino)-N-(2-fluoroethyl)-4-isopropyl-2,7-naphthyridine-1-carboxamide] | < 15 nM | > 50 nM |  |
| CC(C)c1cnc(C(=O)N[C@H]2CNC[C@H]2F)c2cnc(Nc3ccnc(N4CC[C@@H](O)[C@@](C)(F)C4)n3)cc12 (racemic) [Example 85, 6-((2-((3S,4R)-3-fluoro-4-hydroxy-3-methylpiperidin-1-yl)pyrimidin-4-yl)amino)-N-((3S,4R)-4-fluoropyrrolidin-3-yl)-4-isopropyl-2,7-naphthyridine-1-carboxamide trifluoroacetate and 6-((2-((3S,4R)-3-fluoro-4-hydroxy-3-methylpiperidin-1-yl)pyrimidin-4-yl)amino)-N-((3R,4S)-4-fluoropyrrolidin-3-yl)-4-isopropyl-2,7-naphthyridine-1-carboxamide trifluoroacetate] | < 15 nM | 10 to 20 nM |  |
| CNc1ccc(C(C)C)c2cc(Nc3ccnc(N4CC[C@@H](O)[C@@](C)(F)C4)n3)ncc12 [Example 91, (3S,4R)-3-fluoro-1-(4-((5-isopropyl-8-(methylamino)isoquinolin-3-yl)amino)pyrimidin-2-yl)-3-methylpiperidin-4-ol] | < 15 nM | 20 to 30 nM |  |
| CC(C)c1ccc(OCC2CCc3cncn32)c2cnc(Nc3ccnc(N4CCC(C)(O)CC4)n3)cc12 (stereo not drawn) [Example 18, 1-(4-((8-((6,7-dihydro-5Hpyrrolo[1,2-c]imidazol-5-yl)methoxy)-5-isopropylisoquinolin-3-yl)amino)pyrimidin-2-yl)-4-methylpiperidin-4-ol] | < 15 nM | 20 to 30 nM |  |
| CC(C)c1cnc(Nc2cnn(C)c2)c2cnc(Nc3ccnc(N4CC[C@@H](O)[C@@](C)(F)C4)n3)cc12 [Example 6, (3S,4R)-3-fluoro-1-(4-((5-isopropyl-8-((1-methyl-1H-pyrazol-4-yl)amino)-2,7-naphthyridin-3-yl)amino)pyrimidin-2-yl)-3-methylpiperidin-4-ol] | 20 to 30 nM | > 50 nM |  |
| CNCCO[C@@H]1CCN(c2nccc(Nc3cc4c(C(C)C)ccc(OC[C@@H]5COC(=O)N5C)c4cn3)n2)C[C@@H]1F [Example 54, (R)-4-(((3-((2-((3S,4R)-3-fluoro-4-(2-(methylamino)ethoxy)piperidin-1-yl)pyrimidin-4-yl)amino)-5-isopropylisoquinolin-8-yl)oxy)methyl)-3-methyloxazolidin-2-one] | 15 to 20 nM | > 50 nM |  |
| [2H]C([2H])([2H])O[C@@H]1CCN(c2nccc(Nc3cc4c(C(C)C)ccc(OC[C@H]5CCC(=O)N5C)c4cn3)n2)C[C@@H]1F [Example 47, (R)-5-(((3-((2-((3S,4R)-3-fluoro-4-(methoxy-d3)piperidin-1-yl)pyrimidin-4-yl)amino)-5-isopropylisoquinolin-8-yl)oxy)methyl)-1-methylpyrrolidin-2-one] | 15 to 20 nM | > 50 nM |  |
| CC(C)c1cnc(C(=O)NC2CS(=O)(=O)C2)c2cnc(Nc3ccnc(N4CC[C@@H](O)[C@@](C)(F)C4)n3)cc12 [Example 76, N-(1,1-dioxidothietan-3-yl)-6-((2-((3S,4R)-3-fluoro-4-hydroxy-3-methylpiperidin-1-yl)pyrimidin-4-yl)amino)-4-isopropyl-2,7-naphthyridine-1-carboxamide] | < 15 nM | 30 to 50 nM |  |
| Cc1nncn1CCOc1ccc(C(C)C)c2cc(Nc3ccnc(N4CC[C@](C)(O)[C@H](F)C4)n3)ncc12 [Example 30, (3R,4S)-3-fluoro-1-(4-((5-isopropyl-8-(2-(3-methyl-4H-1,2,4-triazol-4-yl)ethoxy)isoquinolin-3-yl)amino)pyrimidin-2-yl)-4-methylpiperidin-4-ol] | < 15 nM | > 50 nM |  |
| CC(=O)N1CC(C)(COc2ccc(C(C)C)c3cc(Nc4ccnc(N5CC[C@@H](O)[C@@](C)(F)C5)n4)ncc23)C1 [Example 7, 1-(3-(((3-((2-((3S,4R)-3-fluoro-4-hydroxy-3-methylpiperidin-1-yl)pyrimidin-4-yl)amino)-5-isopropylisoquinolin-8-yl)oxy)methyl)-3-methylazetidin-1-yl)ethan-1-one] | 15 to 20 nM | 30 to 50 nM |  |
| CC(C)c1ccc(OC[C@H](C)n2cnnc2)c2cnc(Nc3ccnc(N4CC[C@](C)(O)[C@H](F)C4)n3)cc12 [Example 36, (3R,4S)-1-(4-((8-((S)-2-(4H-1,2,4-triazol-4-yl)propoxy)-5-isopropylisoquinolin-3-yl)amino)pyrimidin-2-yl)-3-fluoro-4-methylpiperidin-4-ol] | 15 to 20 nM | > 50 nM |  |
| CC(C)c1cnc(C(=O)NC2CC(F)(F)C2)c2cnc(Nc3ccnc(N4CC[C@@H](O)[C@@](C)(F)C4)n3)cc12 [Example 75, N-(3,3-difluorocyclobutyl)-6-((2-((3S,4R)-3-fluoro-4-hydroxy-3-methylpiperidin-1-yl)pyrimidin-4-yl)amino)-4-isopropyl-2,7-naphthyridine-1-carboxamide] | < 15 nM | 30 to 50 nM |  |
| CC(C)c1ccc(OCCn2cnnc2)c2cnc(Nc3ccnc(N4CC[C@@](C)(O)[C@@H](F)C4)n3)cc12 [Example 28, (3S,4R)-1-(4-((8-(2-(4H-1,2,4-triazol-4-yl)ethoxy)-5-isopropylisoquinolin-3-yl)amino)pyrimidin-2-yl)-3-fluoro-4-methylpiperidin-4-ol] | < 15 nM | 20 to 30 nM |  |
| CO[C@H]1CCN(c2nccc(Nc3cc4c(C(C)C)ccc(OCCn5cnnc5)c4cn3)n2)C[C@H]1F [Example 41, 8-(2-(4H-1,2,4-triazol-4-yl)ethoxy)-N-(2-((3R,4S)-3-fluoro-4-methoxypiperidin-1-yl)pyrimidin-4-yl)-5-isopropylisoquinolin-3-amine] | < 15 nM | 20 to 30 nM |  |
| CC(C)c1ccc(OC[C@H]2COC(=O)N2C)c2cnc(Nc3ccnc(N4CC[C@@](C)(O)[C@@H](F)C4)n3)cc12 (single isomer, unassigned) [Example 23] |  | 30 to 50 nM | 15 to 20 nM |
| CC(C)c1ccc(OCCn2ccnc2)c2cnc(Nc3ccnc(N4CCC(C)(O)CC4)n3)cc12 [Example 17, 1-(4-((8-(2-(1H-imidazol-1-yl)ethoxy)-5-isopropylisoquinolin-3-yl)amino)pyrimidin-2-yl)-4-methylpiperidin-4-ol] | < 15 nM | > 50 nM |  |
| CC(C)c1ccc(OC[C@H]2COC(=O)N2C)c2cnc(Nc3ccnc(N4CC[C@@](C)(O)[C@@H](F)C4)n3)cc12 (single isomer, unassigned) [Example 22] | 15 to 20 nM | > 50 nM |  |
